Reference: patent US4401660A, “Ester derivatives of 5-O-mycaminosyl tylonolide and method of using same” (Eli Lilly and Company, priority 1981, dated 1983)
Like-named read-outs stand apart in the source and are kept apart here.

Legend:
[1] = system: Haemophilus influenzae Holt; test: MIC, standard agar-dilution assay (Table II); assay type: cell-based; set-up: unit not given here; settings: ampicillin-sensitive strain
Description: (§1) The MIC's in Table II were determined by standard agar-dilution assays. The MIC's in Table III were obtained using a conventional broth-dilution microtiter test.

[2] = system: Haemophilus influenzae R252; test: MIC, standard agar-dilution assay (Table II); assay type: cell-based; set-up: unit not given here; settings: Haemophilus influenzae R252, ampicillin-resistant strain
Description: as §1

[3] = system: Staphylococcus aureus S13E; test: MIC, standard agar-dilution assay (Table II); assay type: cell-based; set-up: unit not given here
Description: as §1

[4] = system: Staphylococcus aureus V41; test: MIC, standard agar-dilution assay (Table II); assay type: cell-based; set-up: unit not given here; settings: Staphylococcus aureus V41, penicillin-resistant strain
Description: as §1

[5] = system: Staphylococcus aureus X1.1; test: MIC, standard agar-dilution assay (Table II); assay type: cell-based; set-up: unit not given here
Description: as §1

[6] = system: Staphylococcus aureus X400; test: MIC, standard agar-dilution assay (Table II); assay type: cell-based; set-up: unit not given here; settings: Staphylococcus aureus X400, methicillin-resistant strain
Description: as §1

[7] = system: Staphylococcus epidermidis EPI1; test: MIC, standard agar-dilution assay (Table II); assay type: cell-based; set-up: unit not given here
Description: as §1

[8] = system: Staphylococcus epidermidis EPI2; test: MIC, standard agar-dilution assay (Table II); assay type: cell-based; set-up: unit not given here
Description: as §1

[9] = system: Streptococcus Group D 9960; test: MIC, standard agar-dilution assay (Table II); assay type: cell-based; set-up: unit not given here
Description: as §1

[10] = system: Streptococcus Group D X66; test: MIC, standard agar-dilution assay (Table II); assay type: cell-based; set-up: unit not given here
Description: as §1

[11] = system: Streptococcus pneumoniae Park I; test: MIC, standard agar-dilution assay (Table II); assay type: cell-based; set-up: unit not given here
Description: as §1

[12] = system: Streptococcus pyogenes C203; test: MIC, standard agar-dilution assay (Table II); assay type: cell-based; set-up: unit not given here
Description: as §1

[13] = system: Mycoplasma gallisepticum; test: MIC, broth-dilution microtiter test (Table III); assay type: cell-based; set-up: unit not given here
Description: as §1

[14] = system: Mycoplasma hyorhinis; test: MIC, broth-dilution microtiter test (Table III); assay type: cell-based; set-up: unit not given here
Description: as §1

[15] = system: Mycoplasma synoviae; test: MIC, broth-dilution microtiter test (Table III); assay type: cell-based; set-up: unit not given here
Description: as §1

[16] = system: Pasteurella haemolytica 22C; test: MIC, broth-dilution microtiter test (Table III); assay type: cell-based; set-up: unit not given here
Description: as §1

[17] = system: Pasteurella haemolytica 23C; test: MIC, broth-dilution microtiter test (Table III); assay type: cell-based; set-up: unit not given here
Description: as §1

[18] = system: Pasteurella haemolytica 41D; test: MIC, broth-dilution microtiter test (Table III); assay type: cell-based; set-up: unit not given here
Description: as §1

[19] = system: Pasteurella multocida 17E; test: MIC, broth-dilution microtiter test (Table III); assay type: cell-based; set-up: unit not given here; settings: bovine isolate
Description: as §1

[20] = system: Pasteurella multocida 22A; test: MIC, broth-dilution microtiter test (Table III); assay type: cell-based; set-up: unit not given here
Description: as §1

[21] = system: Pasteurella multocida 40G; test: MIC, broth-dilution microtiter test (Table III); assay type: cell-based; set-up: unit not given here
Description: as §1

[22] = system: Pasteurella multocida 60A; test: MIC, broth-dilution microtiter test (Table III); assay type: cell-based; set-up: unit not given here; settings: avian isolate
Description: as §1

[23] = system: Pasteurella multocida 68C; test: MIC, broth-dilution microtiter test (Table III); assay type: cell-based; set-up: unit not given here
Description: as §1

[24] = system: Staphylococcus aureus; test: MIC, broth-dilution microtiter test (Table III); assay type: cell-based; set-up: unit not given here
Description: as §1

[25] = system: Streptococcus sp. 80; test: MIC, broth-dilution microtiter test (Table III); assay type: cell-based; set-up: unit not given here
Description: as §1

[26] = system: Streptococcus pyogenes C203; test: ED50 in mice with experimental infections (Table IV); assay type: in vivo; settings: Streptococcus pyogenes, doses given 1 and 4 hours postinfection
Method in brief: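 Read-out is ED50, the mg/kg dose protecting half of infected mice; values refer to each of two doses, given 1 and 4 hours after infection.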

[27] = system: Pasteurella multocida; test: Treatment of Pasteurella infections in chicks (Table V); assay type: in vivo, one-day-old chicks; settings: Pasteurella multocida, sc, 4 h; 30 mg/kg by subcutaneous injection one and four hours post challenge; read-out: Deaths in Treated Chicks/Number Treated (converted)
Method in brief: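 Dosing was 30 mg/kg by subcutaneous injection, one and four hours after challenge. Day-old chicks received 0.1 ml of a 10^-3 dilution of a 20-hour tryptose broth culture of avian P. multocida subcutaneously. Nonmedicated infected chicks served as controls, ten per group.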

[28] = C203, oral, read-out: ED50, Oral
[29] = C203, sc, subcutaneous, read-out: ED50, Subcutaneous

| SMILES | minimal inhibitory concentration (MIC) [1] | minimal inhibitory concentration (MIC) [2] | minimal inhibitory concentration (MIC) [3] | minimal inhibitory concentration (MIC) [4] | minimal inhibitory concentration (MIC) [5] | minimal inhibitory concentration (MIC) [6] | minimal inhibitory concentration (MIC) [7] | minimal inhibitory concentration (MIC) [8] | minimal inhibitory concentration (MIC) [9] | minimal inhibitory concentration (MIC) [10] | minimal inhibitory concentration (MIC) [11] | minimal inhibitory concentration (MIC) [12] | minimal inhibitory concentration (MIC) [13] | minimal inhibitory concentration (MIC) [14] | minimal inhibitory concentration (MIC) [15] | minimal inhibitory concentration (MIC) [16] | minimal inhibitory concentration (MIC) [17] | minimal inhibitory concentration (MIC) [18] | minimal inhibitory concentration (MIC) [19] | minimal inhibitory concentration (MIC) [20] | other results |
| --- | --- | --- | --- | --- | --- | --- | --- | --- | --- | --- | --- | --- | --- | --- | --- | --- | --- | --- | --- | --- | --- |
| CCC1OC(=O)CC(O)C(C)C(OC2OC(C)C(O)C(N(C)C)C2O)C(CC=O)CC(C)C(=O)C=CC(C)=CC1COC(=O)Cc1ccccc1 (centres unmarked) [Compound 29, 23-O-Phenylacetyl-OMT] | 0.5 | 1 | 0.125 | 0.125 | 0.125 | 0.125 | 0.125 | 0.25 | 0.125 | 0.125 | 0.03 | 0.06 | 0.05 | 0.195 | 0.05 | 3.12 | 3.12 | 3.12 | 1.56 | 1.56 | minimal inhibitory concentration (MIC) [21]: 1.56; minimal inhibitory concentration (MIC) [22]: 0.78; minimal inhibitory concentration (MIC) [23]: 1.56; minimal inhibitory concentration (MIC) [24]: 0.097; minimal inhibitory concentration (MIC) [25]: 0.05; ED50 [26, 28]: > 100 mg/kg; ED50 [26, 29]: 5 mg/kg; mortality at 30 mg/kg [27]: 0% |
| CCC1OC(=O)CC(O)C(C)C(OC2OC(C)C(O)C(N(C)C)C2OC(C)=O)C(CC=O)CC(C)C(=O)C=CC(C)=CC1COC(=O)C=Cc1ccccc1 (centres unmarked) [Compound 33] | 4 | 4 | 0.5 | 0.5 | 0.5 | 0.5 | 0.5 | 0.5 | 1 | 1 | 0.125 | 0.25 | 0.05 | 0.78 | 0.39 | 12.5 | 12.5 | 12.5 | 3.12 | 3.12 | minimal inhibitory concentration (MIC) [21]: 3.12; minimal inhibitory concentration (MIC) [22]: 3.12; minimal inhibitory concentration (MIC) [23]: 3.12; minimal inhibitory concentration (MIC) [24]: 0.39; minimal inhibitory concentration (MIC) [25]: 0.39; ED50 [26, 28]: 146 mg/kg; ED50 [26, 29]: 9.7 mg/kg; mortality at 30 mg/kg [27]: 80% |
